Measured values taken from patent US12459939B2 (SHANGHAI RINGENE BIOPHARMA CO., LTD., priority 2019, dated 2025).

Columns and labels:
[1] = Metabolic stability in mouse liver microsomes; assay type: in vitro ADME; details: liver microsomes 0.5 mg/mL, NADPH, 1 μM compound, read-out: Mouse microsomal T1/2
Protocol: (§1) (1) Metabolic stability test: 150 μL of liver microsomes (final concentration was 0.5 mg/mL) were subjected to metabolic stability incubation, the system containing NADPH (final concentration was 1 mM), 1 μM of the test compound and the positive control midazolam or the negative control atenolol, the reaction was terminated with acetonitrile containing tinidazole at 0 min, 5 min, 10 min, and 30 min, respectively, then the mixture was vortexed for 10 min, and centrifuged at 15000 rmp for 10 min, 50 μL of the supernatant was injected into 96 well. The metabolic stability of the compound was calculated by measuring the relative reduction of the original drug. (See Table 3 for specific values)

[2] = Metabolic stability in dog liver microsomes; assay type: in vitro ADME; details: liver microsomes 0.5 mg/mL, NADPH, 1 μM compound, read-out: Dog microsomal T1/2
Protocol: as §1

SMILES: Cc1cc(F)cc(C)c1Oc1ccc(C(C)(C)O)cc1-c1cn(C)c(=O)c2cc(C(=O)NC3CC(F)(F)C3)[nH]c12 [Embodiment 18, N-(3,3-difluorocyclobutyl)-7-(2-(4-fluoro-2,6-dimethylphenoxy)-5-(2-hydroxyprop-2-yl)phenyl)-5-methyl-4-oxo-4,5-dihydro-1H-pyrrolo[3,2-c] pyridine-2-amide]
- half-life at 1 μM [1]: 1.27 h
- half-life at 1 μM [2]: 6.67 h
